# Measurements as given in patent publication US11117907B2, “Curcuminoid-inspired synthetic compounds as anti-tumor agents” (University of North Florida Board of Trustees, priority 2017, dated 2021).
# Read-outs that look alike come from different tables or passages of the source.
# How the values were obtained:
# RPMI8226 [1] = test: Cell viability assay to determine EC50 (CellTiter-Glo 2.0), RPMI8226; format: cell-based; conditions: Homo sapiens, RPMI-8226; Table 7, run number 2; 72 h
# Description: (§1) RPMI-8266 (Multiple myeloma cell line, MM) and PBCMs cells were seeded into 384-well culture plates at 2×10^3 cell/well in quadruplicate, and incubated at 5% CO2, 37° C. The culture media was replaced with compounds (ranges from 0-10,000 nM) and incubated for 72 h. Bortezomib was spiked in control. […] CellTiter-Glo® 2.0 reagent was added at equal volume to the cell culture medium present in each well and the plate was left to incubate at room temperature for 10 minutes to stabilize the luminescent signal.
# (§2) Cell lines and PBCMs (peripheral blood mononuclear cells from healthy donors as non-cancer CONTROL) were seeded in quadruplicate (technical replicates). CellTiter-Glo® 2.0 reagent equal to the volume of cell culture medium present in each well was added and the plate was left to incubate at room temperature for 10 min to stabilize the luminescent signal. Luminescent signal/intensity from the 384-well plate was read on a plate reader. Cells/cell lines used: BCWM.1 (Waldenstrom macroglobulinemia cell line, WM); RPMI-8266 (Multiple myeloma cell line, MM); RS4; 11 (Acute lymphoblastic leukemia, ALL)* reported to be dependent on Bcl-2 protein.
# PBMC [2] = test: Cell viability assay (CellTiter-Glo 2.0), PBMC from healthy donors; format: cell-based; conditions: Homo sapiens, Table 7, run number 2, 72 h
# Description: Peripheral blood mononuclear cells (PBMCs) were collected from healthy, i.e. non-cancerous, donors (CONTROL).
# as §1
# as §2, with “Cells/cell lines used: BCWM.1 (Waldenstrom macroglobulinemia cell line, WM); RPMI-8266 (Multiple myeloma cell line, MM); RS4; 11 (Acute lymphoblastic leukemia, ALL)* reported to be dependent on Bcl-2 protein.” left out
# Cell lines and PBCMs (peripheral blood mononuclear cells from healthy donors as non-cancer CONTROL) were seeded in quadruplicate (technical replicates). […] Luminescent signal/intensity from the 384-well plate was read on a plate reader. […]
# RPMI8226 [3] = conditions: control; typically; read-out: EC50 in RPMI8266, typical value; cited from earlier work
# PBMC [4] = conditions: comparison value; read-out: IC50 of PBMCs; cited from earlier work
# [5] = system: MM cell lines (MM1.S, KMS11, RPMI-8226); conditions: cited from earlier work
structure (smiles),measurement,setting,value
CC(C)C[C@H](NC(=O)[C@H](Cc1ccccc1)NC(=O)c1cnccn1)B(O)O [Bortezomib],EC50,RPMI8226 [1],10.6 nM
same,EC50,PBMC [2],60.5 nM
same,EC50,RPMI8226 [3],10 to 16 nM
same,IC50,PBMC [4],4 to 6 nM
same,in vitro tumor-specificity profile,[5]; MM cells versus PBMCs,2-3 fold
same,IC50,"[5]; comparison value, read-out: IC50 in MM cells",~2 nM
